Reference: patent US20220380341A1, “INHIBITORS OF HIV-1 NEF FOR THE TREATMENT OF HIV DISEASE” (priority 2018, published 2022)
Where two headings read alike, the source gives them in different places.

Legend:
HIV-1NL4-3 = test: HIV-1 infectivity assay in TZM-bl reporter cell line (LTR-luciferase, 48 h); assay type: cell-based; conditions: for inhibition at 1 µM: Human immunodeficiency virus 1, TZM-bl
Procedure, shortened: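 Percent inhibition of HIV-1NL4-3 infectivity at 1 μM compound, from luciferase output of TZM-bl cells 48 h after infection. Scale anchors are DMSO-treated wild-type infection as zero and DMSO-treated Nef-defective infection as full Nef-dependent effect.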

TZM-bl cell line = assay type: cell-based; conditions: human, 1 μM
Procedure, shortened: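 Nef-dependent infectivity in TZM-bl cells: HIV-1NL4-3 infection with 1 μM compound, luciferase read at 48 h, normalized against DMSO wild-type and Nef-defective controls. Compound cytotoxicity in uninfected cells measured by Cell Titer Blue.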

HIV-1 NefNL4-3 = HIV-1 NefNL4-3 (Human immunodeficiency virus type 1 group M subtype B, UniProt P03406, A33V/T15A/T51N/V11I); test: Surface plasmon resonance binding to recombinant full-length Nef (NL4-3); conditions: for T, minutes (residence time): 2-step induced fit, T = 1/koff2; for RU30/RUNef (extent of binding): response units at 30 μM relative to Nef immobilized on the SPR chip
HIV-1 Nef SF2 = target: T1, HIV-1 Nef SF2 (Human immunodeficiency virus type 1 group M subtype B, UniProt P03407); test: biochemical; assay type: binding; conditions: two-step induced-fit model, Reichert SPR, read-out: Reichert SPR Nef SF2 (M) two-step fitting
T1 construct: made in house

HIV-1 NL4-3 = test: HIV-1 replication in normal donor PBMCs (p24 Gag AlphaLISA); assay type: cell-based; conditions: Table 1, 4 days, words (Not active, Borderline) where no bound is given
Procedure, shortened: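 PHA/IL-2-activated donor PBMCs infected with HIV-1 NL4-3, wild-type or Δ-Nef, with inhibitor (1–1,000 nM, 0.1% DMSO) in IL-2 medium. Lysates taken after 4 days and p24 quantified by AlphaLISA against a p24 standard; IC50 by non-linear regression, CC50 by CellTiter-Blue in uninfected cells.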

uninfected PBMCs = assay type: cell-based; conditions: human
Description: FIG. 4. Inhibition of HIV-1 replication by compounds disclosed herein in PBMCs. Donor PBMCs were infected with HIV-1 in the presence of inhibitor concentrations ranging from 1 to 1,000 nM or the DMSO carrier solvent as a negative control (0.1% DMSO final). Replication was assessed by p24 Gag AlphaLISA (Perkin Elmer) […]. Each donor was also infected with Nef-defective HIV-1 to establish the baseline for Nef-dependent enhancement of replication in each culture. Cytotoxicity was assessed in uninfected PBMCs over the same incubation period using the CellTiter-Blue assay (Promega). Data were fit by non-linear regression analysis (GraphPad Prism v.7.04) to determine the IC50 and CC50 values shown.
Non-HLA-typed buffy coats (Source: Pittsburgh Central Blood Bank, #E3755) are received and processed within 24 hours of blood donation. PBMCs are isolated via rocking for RBC separation following 1:1 dilution with PBS, followed by Ficoll gradient centrifugation. The lymphocyte fraction is removed and washed several times for a final concentration of ˜150-300×10^6 cells per donor. Cells are activated for 3 days with 1-5 μg/mL PHA (Sigma) and 50 U/mL IL-2. Cells are plated at 750,000 cells/ml and viability is checked at day 3 using the Cell Titer Blue assay (Promega). If cells are >90% viable, then they are infected with HIV-1 NL4-3, wild-type or Δ-Nef mutant (input typically 30-500 pg/mL p24 capsid equivalents) in the presence or absence of Nef inhibitor analogs. IL-2 is included in the media at the time of infection. After 4 days, cells are lysed with 1% Triton X-100 for 1.5 h, checked for viability via Cell Titer Blue, and frozen/stored at −20° C. HIV-1 replication is assessed with a high-sensitivity HIV-1 p24 AlphaLISA assay (Perkin Elmer) in ½-volume 96-well plates, using one-half of the recommended assay volumes for all reagents (including samples). Assays are read on the BioTek Cytation5 instrument; readout is in AlphaUnits and replication in p24 pg/mL is determined using an HIV-1 p24 capsid protein standard included in the Alpha kit.

[1] = target: Nef from SIV (strain mac239) (Simian immunodeficiency virus, UniProt Q5QGG3); test: biochemical
Description: Also shown are SPR data recorded on a Reichert 4-channel SPR instrument. […] Recombinant Nef is immobilized on the biosensor surface, and each compound is injected and association/dissociation kinetics are recorded. The resulting data for the 3 isoforms are each best-fit using both a two-site model and a two-step, induced-fit model. Dissociation constants (KD), calculated from the kinetic association and dissociation constants from all three isoforms, are shown in columns 6-7. Data were fit using three regimes and the resulting KD: from each model are shown in the Table: 1:1 Langmuir fit; 2-site fit, which yields low and high affinity components; and a 2-step induced fit model.

[2] = 1.0 μM, TZM-bl reporter cell line, Table 4, read-out: % Infectivity Inhibition
[3] = 1 μM, TZM-bl, normalized: DMSO wild-type HIV-1 = 0%, Nef-defective HIV-1 = 100%, read-out: HIV-1 Infectivity % Inhibition norm. to Δ-Nef @ 1 μM
[4] = KD, M, Table 4, SPR fit 2-step induced fit, KD = koff/kon × koff2/(koff2 + kon2)
[5] = Nef NL4-3 Binding, SPR 2-state fitting KD, Table 1, 2-step induced-fit model
[6] = Reichert SPR Nef NL43 (M) two-step fitting, KD, two-step induced-fit model, Reichert SPR, Table 3
[7] = read-out: Nef NL4-3 Binding, SPR 1:1 or 2-site fitting KD2, Table 1, 2-site fit, second component
[8] = 48 h, Table 1, TZM-bl cells, 1 μM, 48 h, 100% = Nef-defective HIV-1, read-out: HIV-1 Infectivity % Inhibition Norm. to Δ-Nef @ 1 μM

SMILES | inhibition at 1 µM (HIV-1NL4-3; [2]) | inhibition at 1 µM (HIV-1NL4-3; [3]) | % Cell Viability (TZM-bl cell line) | Kd (HIV-1 NefNL4-3) | Kd (HIV-1 NefNL4-3; [4]) | Kd (HIV-1 NefNL4-3; [5]) | Kd (HIV-1 NefNL4-3; [6]) | T, minutes (residence time) (HIV-1 NefNL4-3; Table 4) | Kd (HIV-1 NefNL4-3; [7]) | RU30/RUNef (extent of binding) (HIV-1 NefNL4-3) | Kd (HIV-1 Nef SF2) | Toxicity in HIV Replication PBMC (Toxic @ concentration) (uninfected PBMCs) | Kd [1] | inhibition at 1 µM (HIV-1NL4-3; [8]) | Percent Viability @ 1 μM (TZM-bl cells) (TZM-bl cell line) | HIV Replication PBMC IC50 vs. HIV NL4-3 (HIV-1 NL4-3) | further results
Oc1c(CCc2ccncc2)c(-c2ccc(C(F)(F)F)cc2)nn1-c1nc2ccccc2[nH]1 [Compound I-101, 1-(1H-1,3-benzodiazol-2-yl)-4-[2-(pyridin-4-yl)ethyl]-3-[4-(trifluoromethyl)phenyl]-1H-pyrazol-5-ol] | 100% | 128% | 76.3% | 1.77e-06 M | 2.91e-10 M | 2.91e-10 M | 2.91e-10 M | 7.00E + 04 minutes | 1.47e-05 M | 1.33E- 02 | 1.43e-10 M | Toxic @ 1 μM | 25.4 nM | – | – | – | HIV-1 Infectivity % Inhibition Norm. to Δ-Nef @ 1 μM (HIV-1NL4-3; Table 1, TZM-bl cells, 1 μM, 48 h, 100% = Nef-defective HIV-1): 78.5%; Toxicity % Viability @ 1 μM (TZM-bl) (TZM-bl cell line): 76.3%; Nef NL4-3 Binding, SPR 1:1 or 2-site fitting KD1 (HIV-1 NefNL4-3; Table 1, 1:1 Langmuir fit where the KD2 cell says '1 to 1 fitting', else 2-site fit): No Interaction; IC50 (HIV-1 NL4-3; Human immunodeficiency virus 1, NL43, PBMC, 96 h): ≤ 1 nM
CC(C)COC(=O)N1CCC(c2nn(-c3nc4ccccc4[nH]3)c(O)c2CCc2ccc(F)cc2)CC1 [Compound I-721, 2-methylpropyl 4-[1-(1H-1,3-benzodiazol-2-yl)-4-[2-(4-fluorophenyl)ethyl]-5-hydroxy-1H-pyrazol-3-yl]piperidine-1-carboxylate] | 100% | 120% | 84.3% | 2.24e-07 M | 3.72e-05 M | 3.72e-05 M | 3.72e-05 M | 4.69E + 02 minutes | 1.76e-06 M | 1.20E- 02 | 5.88e-06 M | Toxic @ 10 nM | 82.6 nM | 120% | 84.3% | Borderline | –
CS(=O)(=O)c1ccc(-c2nn(-c3nc4ccccc4[nH]3)c(O)c2CCc2ccc(F)cc2)cc1 [Compound I-148, 1-(1H-1,3-benzodiazol-2-yl)-4-[2-(4-fluorophenyl)ethyl]-3-(4-methanesulfonylphenyl)-1H-pyrazol-5-ol] | 98.1% | 98.1% | 75.5% | 6.56e-07 M | 3.33e-10 M | 3.33e-10 M | 3.33e-10 M | 3.26E + 04 minutes | – | 1.32E- 02 | 2.07e-11 M | Toxic @ 1 μM | 1.08 nM | 98.1% | 75.5% | Not active | Kd (HIV-1 NefNL4-3; Nef NL4-3 Binding, SPR 1:1 or 2-site fitting KD2, Table 1, 2-site fit, second component): 1.77e-06 M
